# Test results reported in patent US20230089247A1, “NOVEL COMPOUNDS SUITABLE FOR THE TREATMENT OF DYSLIPIDEMIA” (ZYDUS LIFESCIENCES LIMITED, priority 2019, published 2023).
# Target: PCSK9 (Homo sapiens, UniProt Q8NBP7)
# Test: BODIPY-LDL uptake assay in HepG2 cells
# Format: cell-based
# Details: 5 μg/ml PCSK9, BODIPY-LDL
# Description: BODIPY-LDL Uptake Assay in HepG2 Cells.
# An established assay for PCSK9 inhibition features uptake of fluorescently labeled LDL nanoparticles (BODIPY-LDL) by hepatocytes and uptake of the BODIPY-containing particles is maximized in the absence of PCSK9.
# In the LDL uptake assay, HepG2 cells were seeded at a density of 6×10^4 cells/well in a 96-well plate. After 24 h, the test compounds at various concentrations were pre-incubated with 5 μg/ml PCSK9 in 0.2% DMSO for 60 min prior to the addition on to the cells. After 16 h the medium was removed and 1 μg/ml BODIPY-LDL (Invitrogen) in serum free media was added and incubated for 5 h. Then the cells were washed twice with 0.25% BSA in PBS. Then the fluorescence of the cells in PBS was measured using TECAN multimode reader (Excitation: 485 nm and Emission: 520 nm). The readings were taken in triplicate and the final values were normalized with the protein concentration from respective wells. The wells without test compound containing external PCSK9 is considered as zero uptake and the one without PCSK9 was considered as 100% uptake. The percentage increase in LDL uptake for the test compounds were calculated using these values.
# Chain of PCSK9 (Q8NBP7 153-692): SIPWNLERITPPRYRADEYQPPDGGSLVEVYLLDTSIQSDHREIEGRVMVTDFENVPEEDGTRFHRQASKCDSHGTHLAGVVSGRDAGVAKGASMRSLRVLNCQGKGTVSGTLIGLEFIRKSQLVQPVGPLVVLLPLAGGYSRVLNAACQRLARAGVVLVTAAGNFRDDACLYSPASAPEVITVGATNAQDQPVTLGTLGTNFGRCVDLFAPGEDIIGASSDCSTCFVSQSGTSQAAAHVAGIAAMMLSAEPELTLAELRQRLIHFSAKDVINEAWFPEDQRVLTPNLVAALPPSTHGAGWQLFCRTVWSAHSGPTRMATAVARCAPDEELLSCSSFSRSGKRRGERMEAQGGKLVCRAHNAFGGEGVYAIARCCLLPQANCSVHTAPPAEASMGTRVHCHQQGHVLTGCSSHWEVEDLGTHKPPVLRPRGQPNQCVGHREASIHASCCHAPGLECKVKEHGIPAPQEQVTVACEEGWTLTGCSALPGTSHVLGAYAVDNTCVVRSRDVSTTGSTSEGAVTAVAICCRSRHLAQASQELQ
% increase in LDL Uptake (1 μM test compound),% increase in LDL Uptake (10 μM test compound),% increase in LDL Uptake (30 μM test compound),SMILES
−2%,39%,34%,"O=C(Nc1ccc(C2(O)COC2)cc1)C1CCN(c2ccc(C(F)(F)F)cc2)CC1 [Example 3, N-(4-(3-hydroxyoxetan-3-yl)phenyl)-1-(4-(trifluoromethyl)phenyl) piperidine-4-carboxamide]"
38%,58%,77%,"O=C(Nc1ccc(C2(O)COC2)cc1)N1CCC(c2ccc(C(F)(F)F)cc2)CC1 [Example 4, N-(4-(3-hydroxyoxetan-3-yl)phenyl)-4-(4-(trifluoromethyl)phenyl) piperidine-1-carboxamide]"
41%,76%,72%,"COC1(c2ccc(NC(=O)N3CCC(c4ccc(C(F)(F)F)cc4)CC3)cc2)COC1 [Example 5, N-(4-(3-methoxyoxetan-3-yl)phenyl)-4-(4-(trifluoromethyl)phenyl) piperidine-1-carboxamide]"
28%,63%,128%,"O=S(=O)(c1ccc(C2(O)COC2)cc1)N1CCN(c2ccc(C(F)(F)F)cc2)CC1 [Example 7, 3-(4-((4-(4-(trifluoromethyl)phenyl)piperazin-1-yl)sulfonyl)phenyl) oxetan-3-ol]"
21%,32%,34%,"O=C(c1ccc(C2(OCCO)COC2)cc1)N1CC2CN(c3ccc(C(F)(F)F)cc3)CC2C1 (stereo not drawn) [Example 12, (4-(3-(2-hydroxyethoxy)oxetan-3-yl)phenyl)(5-(4-(trifluoromethyl)phenyl)hexahydropyrrolo[3,4-c]pyrrol-2(1H)-yl)methanone]"
29%,43%,33%,"O=C(O)COC1(c2ccc(C(=O)N3CC4CN(c5ccc(C(F)(F)F)cc5)CC4C3)cc2)COC1 (stereo not drawn) [Example 13, 2-((3-(4-(5-(4-(trifluoromethyl)phenyl)octahydropyrrolo[3,4-c]pyrrole-2-carbonyl)phenyl)oxetan-3-yl)oxy)acetic acid]"
0%,20%,122%,"O=C(c1ccc(C2(O)COC2)cc1)N1CCC(c2cc(F)cc(C(F)(F)F)c2)CC1 [Example 14, (4-(3-fluoro-5-(trifluoromethyl)phenyl)piperidin-1-yl)(4-(3-hydroxyoxetan-3-yl)phenyl)methanone]"
38%,22%,19%,"OC1(c2ccc(-c3nc(-c4ccc(C(F)(F)F)c(F)c4)no3)cc2)COC1 [Example 16, 3-(4-(3-(3-fluoro-4-(trifluoromethyl)phenyl)-1,2,4-oxadiazol-5-yl)phenyl) oxetan-3-ol]"
0%,7%,18%,"Cn1nc(-c2ccc(C(F)(F)F)cc2)c2c1CN(C(=O)c1ccc(C3(O)COC3)cc1)C2 [Example 20, (4-(3-hydroxyoxetan-3-yl)phenyl)(1-methyl-3-(4-(trifluoromethyl)phenyl)-4,6-dihydropyrrolo[3,4-c]pyrazol-5(1H)-yl)methanone]"
0%,19%,14%,"O=C(c1ccc(C2(O)COC2)cc1)N1CCC(c2ccc(OC(F)(F)F)cc2)CC1 [Example 22, (4-(3-hydroxyoxetan-3-yl)phenyl)(4-(4-(trifluoromethoxy)phenyl)piperidin-1-yl)methanone]"
15%,21%,33%,"COc1ccc(C2CCN(C(=O)c3ccc(C4(O)COC4)cc3)CC2)cc1Cl [Example 26, (4-(3-chloro-4-methoxyphenyl)piperidin-1-yl)(4-(3-hydroxyoxetan-3-yl)phenyl)methanone]"
